According to ChEMBL document CHEMBL1201862, “PubChem BioAssay data set” (2004):
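1) Cells in 96-well plates. 2) Compound, 48 h, 5 concentrations. 3) Linear interpolation between surrounding doses. 4) Unreached endpoint = highest concentration. Here, GI50 denotes the concentration required for 50% inhibition of growth.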 The source made the active and inactive calls. No stated cut-off is given here; in the data, active = GI50 up to about 1.1 µM and inactive = higher.

How the values were obtained:
Assay in all cases: NCI tumour cell line growth inhibition, 48 h
SK-MEL-5 = tested on: SK-MEL-5
RXF 393 = tested on: RXF 393
U-251 = tested on: U-251
NCI-H522 = tested on: NCI-H522
SK-OV-3 = tested on: SK-OV-3
HOP-92 = tested on: HOP-92
SR = tested on: SR
Hs-578T = tested on: Hs-578T
MOLT-4 = tested on: MOLT-4
SW-620 = tested on: SW-620
BT-549 = tested on: BT-549
CCRF-CEM = tested on: CCRF-CEM
NCI-H460 = tested on: NCI-H460
COLO 205 = tested on: COLO 205
HL-60 = tested on: HL-60
HOP-62 = tested on: HOP-62
SF-268 = tested on: SF-268
OVCAR-3 = tested on: OVCAR-3
A498 = tested on: A498
EKVX = tested on: EKVX
RPMI-8226 = tested on: RPMI-8226
HCT-15 = tested on: HCT-15
MDA-N = tested on: MDA-N
SN12C = tested on: SN12C
HT-29 = tested on: HT-29
Malme-3M = tested on: Malme-3M
T47D = tested on: T47D
UO-31 = tested on: UO-31
CAKI-1 = tested on: CAKI-1
IGROV-1 = tested on: IGROV-1
SF-539 = tested on: SF-539
SK-MEL-28 = tested on: SK-MEL-28
MCF7 = tested on: MCF7
SF-295 = tested on: SF-295
MDA-MB-435 = tested on: MDA-MB-435
A549 = tested on: A549
TK-10 = tested on: TK-10
786-0 = tested on: 786-0
DU-145 = tested on: DU-145
K562 = tested on: K562
ACHN = tested on: ACHN
UACC-257 = tested on: UACC-257
NCI-H23 = tested on: NCI-H23
SNB-19 = tested on: SNB-19
LOX IMVI = tested on: LOX IMVI
M14 = tested on: M14
KM12 = tested on: KM12
HCC 2998 = tested on: HCC 2998
MDA-MB-231 = tested on: MDA-MB-231
OVCAR-8 = tested on: OVCAR-8
NCI/ADR-RES = tested on: NCI/ADR-RES
UACC-62 = tested on: UACC-62
OVCAR-5 = tested on: OVCAR-5
HCT-116 = tested on: HCT-116
PC-3 = tested on: PC-3
SK-MEL-2 = tested on: SK-MEL-2
SNB-75 = tested on: SNB-75
NCI-H226 = tested on: NCI-H226
OVCAR-4 = tested on: OVCAR-4

Measured: GI50

C/C=C/C(C#N)(Cc1ccccc1)OP1(=O)OC(c2ccccc2)C(C)N1C (centres undefined)
inactive: SK-MEL-5 48.9 µM | RXF 393 > 100 µM | U-251 88.5 µM | NCI-H522 50.1 µM | SK-OV-3 > 100 µM | HOP-92 73.3 µM | SR 36 µM | Hs-578T 89.5 µM | MOLT-4 21.2 µM | SW-620 > 100 µM | BT-549 90.2 µM | CCRF-CEM 19.4 µM | NCI-H460 43.6 µM | COLO 205 > 100 µM | HL-60 17 µM | HOP-62 > 100 µM | SF-268 > 100 µM | OVCAR-3 56.8 µM | A498 69.3 µM | EKVX 71.6 µM | RPMI-8226 33 µM | MDA-N 88.1 µM | SN12C 81.7 µM | HT-29 69.2 µM | Malme-3M > 100 µM | T47D 47.9 µM | UO-31 55.3 µM | CAKI-1 > 100 µM | IGROV-1 95.3 µM | SF-539 > 100 µM | SK-MEL-28 > 100 µM | MCF7 54.2 µM | SF-295 49.1 µM | MDA-MB-435 48.4 µM | A549 66.4 µM | TK-10 > 100 µM | 786-0 > 100 µM | DU-145 > 100 µM | K562 38.5 µM | ACHN 84.1 µM | UACC-257 65.8 µM | NCI-H23 87.3 µM | SNB-19 78.5 µM | LOX IMVI 44.1 µM | M14 > 100 µM | KM12 45.6 µM | HCC 2998 81.3 µM | MDA-MB-231 > 100 µM | OVCAR-8 86.7 µM | NCI/ADR-RES 72.4 µM | UACC-62 56.5 µM | OVCAR-5 > 100 µM | HCT-116 > 100 µM | PC-3 58.6 µM | SK-MEL-2 > 100 µM | SNB-75 > 100 µM
79.6 µM: HCT-15

COC(=O)CCC(C)[C@H]1CCC2C3CC[C@@H]4CC5(CC[C@]4(C)C3C[C@H](OC(C)=O)[C@@]21C)OOC1(CCCCC1)OO5 (some centres undefined)
11.9 µM: HCT-15
inactive: SK-MEL-5 5.78 µM | RXF 393 > 100 µM | U-251 6.62 µM | NCI-H522 6.01 µM | SK-OV-3 > 100 µM | HOP-92 46.6 µM | SR 3.33 µM | Hs-578T 13.4 µM | MOLT-4 6.11 µM | BT-549 27.6 µM | CCRF-CEM 5.3 µM | NCI-H460 4.69 µM | COLO 205 6.17 µM | HL-60 2.49 µM | HOP-62 8.89 µM | SF-268 19.7 µM | OVCAR-3 15.3 µM | A498 > 100 µM | EKVX 1.9 µM | RPMI-8226 1.94 µM | MDA-N 8.26 µM | SN12C > 100 µM | HT-29 14.2 µM | Malme-3M 4.03 µM | T47D 2.75 µM | UO-31 2.67 µM | CAKI-1 4.03 µM | IGROV-1 2.12 µM | SF-539 44.7 µM | SK-MEL-28 27.7 µM | MCF7 8.69 µM | SF-295 9.4 µM | MDA-MB-435 7.35 µM | A549 9.77 µM | TK-10 > 100 µM | 786-0 12.1 µM | DU-145 7.87 µM | K562 6.01 µM | ACHN 8.32 µM | UACC-257 4.49 µM | NCI-H23 9.55 µM | SNB-19 > 100 µM | M14 3.33 µM | KM12 8.85 µM | HCC 2998 2.25 µM | MDA-MB-231 > 100 µM | OVCAR-8 13.7 µM | NCI/ADR-RES 81.1 µM | UACC-62 > 100 µM | OVCAR-5 17.3 µM | HCT-116 3.24 µM | NCI-H226 > 100 µM | PC-3 6.55 µM | SK-MEL-2 5.26 µM | OVCAR-4 4.06 µM | SNB-75 55.2 µM
